According to article PMC3345137 (Toxicology and Applied Pharmacology, 2011):

Key:
[1] = molecular target: T1, Human recombinant CES2 (Carboxylesterase 2) (Homo sapiens, UniProt O00748); assay type: biochemical
T1 sequence (O00748 27-559): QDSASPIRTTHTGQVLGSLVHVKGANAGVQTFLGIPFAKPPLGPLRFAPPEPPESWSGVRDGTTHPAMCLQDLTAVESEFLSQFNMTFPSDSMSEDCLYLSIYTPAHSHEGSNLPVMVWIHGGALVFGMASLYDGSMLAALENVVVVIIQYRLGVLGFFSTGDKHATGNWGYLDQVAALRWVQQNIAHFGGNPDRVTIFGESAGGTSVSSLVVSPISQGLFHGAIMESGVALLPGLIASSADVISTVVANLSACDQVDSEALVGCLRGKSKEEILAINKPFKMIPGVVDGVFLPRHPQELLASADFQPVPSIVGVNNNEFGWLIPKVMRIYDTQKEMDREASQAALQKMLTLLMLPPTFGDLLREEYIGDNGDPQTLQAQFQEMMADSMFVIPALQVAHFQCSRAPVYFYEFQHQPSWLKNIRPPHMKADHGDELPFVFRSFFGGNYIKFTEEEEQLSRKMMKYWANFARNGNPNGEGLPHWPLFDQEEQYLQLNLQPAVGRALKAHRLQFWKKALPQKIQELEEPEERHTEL

[2] = molecular target: porcine liver carboxylesterase; conditions: 25°C, ref Quistad and Casida, 2000; cited from earlier work
Rat hydrolase A = molecular target: T2, Rat hydrolase A (Rattus norvegicus, UniProt P16303); assay type: biochemical
T2 sequence (P16303 19-565): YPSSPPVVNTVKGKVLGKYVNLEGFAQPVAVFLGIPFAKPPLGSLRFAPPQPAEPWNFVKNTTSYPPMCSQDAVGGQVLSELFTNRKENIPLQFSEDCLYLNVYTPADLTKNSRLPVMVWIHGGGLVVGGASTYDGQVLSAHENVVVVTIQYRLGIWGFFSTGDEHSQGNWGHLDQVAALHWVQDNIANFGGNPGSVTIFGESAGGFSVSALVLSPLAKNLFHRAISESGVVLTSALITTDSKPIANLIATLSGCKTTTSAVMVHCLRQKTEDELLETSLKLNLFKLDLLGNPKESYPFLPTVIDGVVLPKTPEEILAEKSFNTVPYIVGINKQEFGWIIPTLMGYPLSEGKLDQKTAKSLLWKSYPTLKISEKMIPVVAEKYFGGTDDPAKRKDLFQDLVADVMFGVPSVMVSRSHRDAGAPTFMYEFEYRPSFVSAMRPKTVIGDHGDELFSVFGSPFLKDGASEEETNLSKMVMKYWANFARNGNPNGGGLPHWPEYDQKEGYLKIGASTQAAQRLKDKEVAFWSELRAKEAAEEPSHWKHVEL

[3] = molecular target: T3, Human recombinant MGL (Monoacylglycerol lipase) (Homo sapiens, UniProt Q99685); assay type: biochemical; conditions: Michaelis constant of substrate pNPV with MGL, no inhibitor
T3 sequence (Q99685 1-303): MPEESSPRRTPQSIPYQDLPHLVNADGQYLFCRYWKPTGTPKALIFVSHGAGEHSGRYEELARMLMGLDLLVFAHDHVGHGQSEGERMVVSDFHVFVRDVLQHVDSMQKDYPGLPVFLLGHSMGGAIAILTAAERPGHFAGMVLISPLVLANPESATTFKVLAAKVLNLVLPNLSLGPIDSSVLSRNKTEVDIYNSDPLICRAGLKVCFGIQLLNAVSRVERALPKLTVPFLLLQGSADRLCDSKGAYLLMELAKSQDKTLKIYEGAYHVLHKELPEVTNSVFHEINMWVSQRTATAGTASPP

[4] = molecular target: T4, Human recombinant CES1 (Carboxylesterase 1) (Homo sapiens, UniProt P23141); assay type: biochemical; conditions: Michaelis constant of substrate pNPV with CES1, no inhibitor
T4 sequence (P23141 18-567): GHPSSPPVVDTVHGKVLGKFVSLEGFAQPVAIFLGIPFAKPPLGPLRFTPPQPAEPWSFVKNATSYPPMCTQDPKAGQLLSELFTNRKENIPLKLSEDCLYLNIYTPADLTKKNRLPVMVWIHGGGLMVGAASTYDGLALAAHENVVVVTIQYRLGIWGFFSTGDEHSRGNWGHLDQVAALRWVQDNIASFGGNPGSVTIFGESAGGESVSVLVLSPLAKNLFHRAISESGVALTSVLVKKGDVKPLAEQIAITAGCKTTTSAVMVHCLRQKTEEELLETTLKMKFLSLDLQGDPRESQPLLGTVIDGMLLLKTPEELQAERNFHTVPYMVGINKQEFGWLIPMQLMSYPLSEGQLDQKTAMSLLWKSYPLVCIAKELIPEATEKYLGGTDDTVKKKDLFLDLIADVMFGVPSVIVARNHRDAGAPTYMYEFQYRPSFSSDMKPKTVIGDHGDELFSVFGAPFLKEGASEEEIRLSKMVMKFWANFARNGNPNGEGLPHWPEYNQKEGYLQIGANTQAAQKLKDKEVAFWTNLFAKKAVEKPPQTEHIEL

[5] = tested on: recombinant human butyrylcholinesterase; conditions: experimental, ref Amitai et al., 1998; cited from earlier work
[6] = tested on: recombinant human acetylcholinesterase; conditions: experimental, ref Amitai et al., 1998; cited from earlier work
butyrylcholinesterase = conditions: purified butyrylcholinesterase; ref Shenouda et al., 2009; cited from earlier work

Which “true bimolecular rate constant” value ([1]; CES2, single representative experiment, calculated with Equation (4)) does the source give for `CCOP(=O)(OCC)Oc1ccc([N+](=O)[O-])cc1` [Paraoxon] here?
The value was 29000 M⁻¹ s⁻¹.

What about the “apparent bimolecular rate constant (ki’= kinact/KI’)” value ([1]; CES2, single representative experiment, pNPV 500 µM, 37°C) of the same compound?
The value was 4400 M⁻¹ s⁻¹.

What about the IC50 [2] of the same compound?
The IC50 was 3 nM.

With `CCCCC(=O)Oc1ccc([N+](=O)[O-])cc1` [pNPV, para-Nitrophenyl valerate] as the compound, how does the Km (Rat hydrolase A; Michaelis constant of substrate pNPV with rat hydrolase A, no inhibitor) read?
Its Km is 32.6 µM.

And the Km ([1]; Michaelis constant of substrate pNPV with CES2, no inhibitor)?
The Km was 90 ± 12 µM.

And the Km [3]?
Its Km is 158 ± 37 µM.

What about the Km [4] of the same compound?
Its Km is 136 ± 40 µM.

For `CCOP(=O)(OCC)Oc1nc(Cl)c(Cl)cc1Cl` [Chlorpyrifos Oxon, Chlorpyrifos oxon], which bimolecular rate constant (Rat hydrolase A; rat hydrolase A purified from rat liver) is on record?
Its bimolecular rate constant is 3.3e+06 M⁻¹ s⁻¹.

And the bimolecular rate constant [5]?
Its bimolecular rate constant is 2.78e+07 M⁻¹ s⁻¹.

What about the IC50 [2] of the same compound?
The IC50 was 2 nM.

What about the bimolecular rate constant [6] of the same compound?
Its bimolecular rate constant is 167000 M⁻¹ s⁻¹.

And the bimolecular rate constant (butyrylcholinesterase)?
Its bimolecular rate constant is 8.47e+08 M⁻¹ s⁻¹.
